{"source": "patent US20260325605A1", "about": "“INHIBITORS” (Zealand Pharma A/S, priority 2022, published 2026)", "key": {"[1]": {"system": "collagen-induced arthritis in rats", "assay": "Example 9: Rat collagen-induced arthritis (CIA) model, clinical score", "type": "in vivo, rat (Lewis)", "set-up": "key: qualitative severity score summed over four paws, maximum 16", "method": "Vehicle: 10 mM phosphate pH 6+0.8% NaCl+0.05% polysorbate 20\nPeptide: Peptide 100 is formulated in vehicle at 50 nmol/mL. Dosing volume was individually adjusted according to the body weight of each animal to reach the target dose of peptide 100 of 100 nmol/kg.\nThe animal care facility employed is accredited by AAALAC. Female Lewis rats, weighing 180±20 g at delivery were used for this study. Following arrival in the animal facility, all animals were subjected to a general health evaluation. An acclimation period of 1 day was allowed before the beginning of the study.\nAnimals were grouped into 9 each based on their body weight. All animals were challenged with porcine type-II collagen with incomplete Freund's adjuvant on day 1 (0.2 mg/0.2 mL/rat, subcutaneously at the base of the tail) and boosted on day 7 (0.1 mg/0.1 mL/rat, s.c.). In the study dexamethasone given daily PO at 0.3 mg/kg was used as a positive control.\nFrom day 12 to day 30, peptide 100 was administered as a single bolus either daily (QD), every third day (Q3D) or every fifth day (Q5D) subcutaneously into the flank. […] The peptide and vehicle were dosed at a volume of 2 mL/kg. Dosing volume was individually adjusted according to the body weight of each animal to reach the target dose of formulation 1 of 100 nmol/kg.\nDisease was assessed by using a qualitative severity score system (see below, maximum score of 16) on days 1, 7, 10, 12 (before dosing), 13, 14, 15, 16, 17, 18, 19, 20, 21, 22, 24, 26 and 28 before peptide treatment and one hour after treatment on day 30.\nThe disease severity score is based on the following:\nThe ability of Kv1.3 inhibitor treatment to reduce chronic inflammation in arthritis was investigated by comparing the response in rats (n=9 animals/group) treated with vehicle to that of rats treated with peptide 100 daily, every third day or every fifth day. The severity of arthritis was determined by summation of the disease score on all four paws from day 12 to day 30 for each animal."}, "[2]": {"assay": "Example 6: Pharmacokinetic characterisation after s.c. administration", "type": "in vivo, rat (Sprague Dawley or Wistar)", "conditions": "rat, 70 nmol/kg", "method": "Sprague Dawley or Wistar rats (males with a body weight of approximately 250-350 g) were given a single subcutaneous (s.c.) injection of each peptide to be tested.\nFollowing s.c. administration of the selected peptides (dose 70 nmol/kg, dosing volume either 2 or 5 mL/kg), blood samples were drawn at 15 min, 30 min, 45 min, 60 min, 90 min, 2 h, 3 h, 4 h post-dose. At each sampling time point, samples from the rats were drawn by sublingual bleeding or by tail cut. After last sampling the rats were sacrificed by O2/CO2 anaesthesia. The dosing vehicle was 10 mM phosphate, 0.8% NaCl, 0.05% Polysorbate 20 (pH 6.0).\nPlasma samples were analyzed after solid phase extraction (SPE) by liquid chromatography mass spectrometry (LC-MS/MS). Mean plasma concentrations were used for calculation of the pharmacokinetic parameters using the non-compartmental approach in Phoenix WinNonlin 6.4 or a later version. […]. AUCinf is the area under the plasma concentration−time curve extrapolated to infinity (AUCinf=AUClast+Clast/λz, where Clast is the last observed plasma concentration). Cmax is the maximum observed concentration, occurring at Tmax."}}}
{"substance": "H-P[Nle]E[Nle]RC(1)SASVEC(2)KQKC(3)LAAIGSIFGKC(1)[Nle]NKKC(2)KC(3)YPR-OH [Peptide 100]", "values": [{"measurement": "Mean clinical score", "setting": "[1]; 100 nmol/kg s.c. daily, every third day or every fifth day, day 12 to day 30, in words", "value": "reduction of the mean clinical score with all dosing regimens"}, {"measurement": "Mean clinical score", "setting": "[1]; Q3D SC 100 nmol/kg, day 12", "value": 0.8}, {"measurement": "Mean clinical score", "setting": "[1]; Q3D SC 100 nmol/kg, day 13", "value": 2.0}, {"measurement": "Mean clinical score", "setting": "[1]; Q3D SC 100 nmol/kg, day 14", "value": 4.1}, {"measurement": "Mean clinical score", "setting": "[1]; Q3D SC 100 nmol/kg, day 15", "value": 4.4}, {"measurement": "Mean clinical score", "setting": "[1]; Q3D SC 100 nmol/kg, day 16", "value": 5.0}, {"measurement": "Mean clinical score", "setting": "[1]; Q3D SC 100 nmol/kg, day 17", "value": 5.6}, {"measurement": "Mean clinical score", "setting": "[1]; Q3D SC 100 nmol/kg, day 18", "value": 6.4}, {"measurement": "Mean clinical score", "setting": "[1]; Q3D SC 100 nmol/kg, day 19", "value": 6.6}, {"measurement": "Mean clinical score", "setting": "[1]; Q3D SC 100 nmol/kg, day 20", "value": 7.2}, {"measurement": "Mean clinical score", "setting": "[1]; Q3D SC 100 nmol/kg, day 21", "value": 7.3}, {"measurement": "Mean clinical score", "setting": "[1]; Q3D SC 100 nmol/kg, day 22", "value": 8.0}, {"measurement": "Mean clinical score", "setting": "[1]; Q3D SC 100 nmol/kg, day 24", "value": 8.2}, {"measurement": "Mean clinical score", "setting": "[1]; Q3D SC 100 nmol/kg, day 26", "value": 8.4}, {"measurement": "Mean clinical score", "setting": "[1]; Q3D SC 100 nmol/kg, day 28", "value": 9.0}, {"measurement": "Mean clinical score", "setting": "[1]; Q3D SC 100 nmol/kg, day 30", "value": 10.0}, {"measurement": "Mean clinical score", "setting": "[1]; Q5D SC 100 nmol/kg, day 12", "value": 2.4}, {"measurement": "Mean clinical score", "setting": "[1]; Q5D SC 100 nmol/kg, day 13", "value": 3.3}, {"measurement": "Mean clinical score", "setting": "[1]; Q5D SC 100 nmol/kg, day 14", "value": 4.6}, {"measurement": "Mean clinical score", "setting": "[1]; Q5D SC 100 nmol/kg, day 15", "value": 4.9}, {"measurement": "Mean clinical score", "setting": "[1]; Q5D SC 100 nmol/kg, day 16", "value": 5.4}, {"measurement": "Mean clinical score", "setting": "[1]; Q5D SC 100 nmol/kg, day 17", "value": 5.8}, {"measurement": "Mean clinical score", "setting": "[1]; Q5D SC 100 nmol/kg, day 18", "value": 6.2}, {"measurement": "Mean clinical score", "setting": "[1]; Q5D SC 100 nmol/kg, day 19", "value": 6.4}, {"measurement": "Mean clinical score", "setting": "[1]; Q5D SC 100 nmol/kg, day 20", "value": 6.9}, {"measurement": "Mean clinical score", "setting": "[1]; Q5D SC 100 nmol/kg, day 21", "value": 7.1}, {"measurement": "Mean clinical score", "setting": "[1]; Q5D SC 100 nmol/kg, day 22", "value": 7.6}, {"measurement": "Mean clinical score", "setting": "[1]; Q5D SC 100 nmol/kg, day 24", "value": 8.2}, {"measurement": "Mean clinical score", "setting": "[1]; Q5D SC 100 nmol/kg, day 26", "value": 8.5}, {"measurement": "Mean clinical score", "setting": "[1]; Q5D SC 100 nmol/kg, day 28", "value": 9.0}, {"measurement": "Mean clinical score", "setting": "[1]; Q5D SC 100 nmol/kg, day 30", "value": 9.4}, {"measurement": "Mean clinical score", "setting": "[1]; QD SC 100 nmol/kg, day 12", "value": 0.8}, {"measurement": "Mean clinical score", "setting": "[1]; QD SC 100 nmol/kg, day 13", "value": 2.1}, {"measurement": "Mean clinical score", "setting": "[1]; QD SC 100 nmol/kg, day 14", "value": 4.3}, {"measurement": "Mean clinical score", "setting": "[1]; QD SC 100 nmol/kg, day 15", "value": 4.7}, {"measurement": "Mean clinical score", "setting": "[1]; QD SC 100 nmol/kg, day 16", "value": 5.8}, {"measurement": "Mean clinical score", "setting": "[1]; QD SC 100 nmol/kg, day 17", "value": 6.0}, {"measurement": "Mean clinical score", "setting": "[1]; QD SC 100 nmol/kg, day 18", "value": 6.6}, {"measurement": "Mean clinical score", "setting": "[1]; QD SC 100 nmol/kg, day 19", "value": 6.7}, {"measurement": "Mean clinical score", "setting": "[1]; QD SC 100 nmol/kg, day 20", "value": 7.0}, {"measurement": "Mean clinical score", "setting": "[1]; QD SC 100 nmol/kg, day 21", "value": 7.1}, {"measurement": "Mean clinical score", "setting": "[1]; QD SC 100 nmol/kg, day 22", "value": 7.1}, {"measurement": "Mean clinical score", "setting": "[1]; QD SC 100 nmol/kg, day 24", "value": 6.9}, {"measurement": "Mean clinical score", "setting": "[1]; QD SC 100 nmol/kg, day 26", "value": 7.0}, {"measurement": "Mean clinical score", "setting": "[1]; QD SC 100 nmol/kg, day 28", "value": 7.8}, {"measurement": "Mean clinical score", "setting": "[1]; QD SC 100 nmol/kg, day 30", "value": 8.4}, {"measurement": "AUCINF", "setting": "[2]; plasma", "value": 0.112, "unit": "µM·h"}, {"measurement": "Cmax", "setting": "[2]; plasma", "value": 52.6, "unit": "nM"}, {"measurement": "T1/2", "setting": "[2]; plasma terminal elimination half-life", "value": 1.04, "unit": "h"}]}
